{"source": "patent US20190231788A1", "about": "“COMPOSITIONS COMPRISING TIMOLOL AND AN ANTI-INFLAMMATORY AGENT” (Almirall, S.A., priority 2016, published 2019)", "key": {"TPA-induced ear oedema [1]": {"tested_on": "TPA-induced ear oedema", "test": "TPA-induced ear oedema model in Balb/c mice, single topical application", "assay_type": "in vivo", "protocol": "Evaluation of the Anti-Oedema Effect of Ivermectin, Praziquantel and Timolol and Combinations of Timolol with Ivermectin or Praziquantel after a Single Topical Application in the TPA-Induced Ear Oedema Model in Balb/c Mice.\nThe oedema is induced by means of a single application to the right ear of the mouse of 10 μl of a solution of TPA (phorbol 12-myristate 13-acetate) in acetone at 0.01%. The test compounds are diluted in acetone and applied with TPA. The weight of the mouse ears is measured at T+6 h and the weight of the left ear is subtracted from the one of the right ear.\nTreatments: • A. Ivermectin is applied at a concentration of 0.1-0.3-1%, • B. Praziquantel is applied at a concentration at 0.3-1-3% • C. Timolol is applied at a concentration at 0.2-0.5-1%.\nFor combination studies Ivermectin alone is applied at a concentration of 0.3%, praziquantel alone is applied at 1% and timolol alone is applied at 0.5%. These same strengths are used in the combinations.\nEach graph represents the average weight of the ear oedema of four different groups of treated animals. Each group includes 6 animals. Numbers above the bars indicate the percentage inhibition of the corresponding group of treated animals vs the control group."}, "TPA-induced ear oedema [2]": {"tested_on": "TPA-induced ear oedema", "conditions": "topical 0.2%; mice; cited from earlier work"}, "[3]": {"conditions": "dose-response study (FIGS. A-C), 1% in acetone applied with TPA, ear weight at T+6 h"}, "[4]": {"conditions": "dose-response study (FIGS. A-C), 0.3% in acetone applied with TPA, ear weight at T+6 h"}}, "data": [{"smiles": "CC(C)(C)NC[C@H](O)COc1nsnc1N1CCOCC1", "note": "[timolol, (S)-1-(tert-butylamino)-3-[(4-morpholin-4-yl-1,2,5-thiadiazol-3-yl)oxy]propan-2-ol]", "values": [{"measurement": "inhibition of ear oedema vs control group", "setting": "TPA-induced ear oedema [1]; combination study FIG. 1, timolol alone at 0.5%, T+6 h", "value": 30, "unit": "%"}, {"measurement": "inhibition of ear oedema vs control group", "setting": "TPA-induced ear oedema [1]; combination study FIG. 2, timolol alone at 0.5%, T+6 h", "value": 16, "unit": "%"}, {"measurement": "inhibition of ear oedema vs control group", "setting": "TPA-induced ear oedema [1]; dose-response study (FIGS. A-C), 0.2% in acetone applied with TPA, ear weight at T+6 h", "value": 6, "unit": "%"}, {"measurement": "inhibition of ear oedema vs control group", "setting": "TPA-induced ear oedema [1]; dose-response study (FIGS. A-C), 0.5% in acetone applied with TPA, ear weight at T+6 h", "value": 23, "unit": "%"}, {"measurement": "inhibition of ear oedema vs control group", "setting": "TPA-induced ear oedema [1]; [3]", "value": 14, "unit": "%"}]}, {"smiles": "CC[C@H](C)[C@H]1O[C@]2(CC[C@@H]1C)C[C@@H]1C[C@@H](C/C=C(\\C)C(O[C@H]3C[C@H](OC)C(O[C@H]4C[C@H](OC)[C@@H](O)[C@H](C)O4)[C@H](C)O3)[C@@H](C)/C=C/C=C3\\CO[C@@H]4[C@H](O)C(C)=C[C@@H](C(=O)O1)[C@]34O)O2", "note": "(some centres unmarked) [ivermectin, 22,23-dihydroavermectin B1a]", "values": [{"measurement": "inhibition of ear oedema vs control group", "setting": "TPA-induced ear oedema [1]; combination study FIG. 1, ivermectin alone at 0.3%, T+6 h", "value": 37, "unit": "%"}, {"measurement": "inhibition of ear oedema vs control group", "setting": "TPA-induced ear oedema [1]; dose-response study (FIGS. A-C), 0.1% in acetone applied with TPA, ear weight at T+6 h", "value": 20, "unit": "%"}, {"measurement": "inhibition of ear oedema vs control group", "setting": "TPA-induced ear oedema [1]; [4]", "value": 43, "unit": "%"}, {"measurement": "inhibition of ear oedema vs control group", "setting": "TPA-induced ear oedema [1]; [3]", "value": 82, "unit": "%"}]}, {"smiles": "O=C(C1CCCCC1)N1CC(=O)N2CCc3ccccc3C2C1", "note": "(racemic) [praziquantel, (RS)-2-(Cyclohexylcarbonyl)-1,2,3,6,7,11b-hexahydro-4H-pyrazino[2,1-a]isoquinolin-4-one]", "values": [{"measurement": "inhibition of ear oedema vs control group", "setting": "TPA-induced ear oedema [1]; combination study FIG. 2, praziquantel alone at 1%, T+6 h", "value": 42, "unit": "%"}, {"measurement": "inhibition of ear oedema vs control group", "setting": "TPA-induced ear oedema [1]; [4]", "value": 15, "unit": "%"}, {"measurement": "inhibition of ear oedema vs control group", "setting": "TPA-induced ear oedema [1]; [3]", "value": 48, "unit": "%"}, {"measurement": "inhibition of ear oedema vs control group", "setting": "TPA-induced ear oedema [1]; dose-response study (FIGS. A-C), 3% in acetone applied with TPA, ear weight at T+6 h", "value": 91, "unit": "%"}]}, {"smiles": "Brc1c(NC2=NCCN2)ccc2nccnc12", "note": "[brimonidine]", "values": [{"measurement": "inhibition of TPA-induced ear oedema", "setting": "TPA-induced ear oedema [2]", "value": 50, "unit": "%"}]}]}
